The values that follow come from publication PMC7587356, “High-Throughput Screening for Inhibitors of the SARS-CoV-2 Protease Using a FRET-Biosensor” (Molecules, 2020).

The target of the test is SARS-CoV-2 3CLpro (Severe acute respiratory syndrome coronavirus 2, UniProt P0DTD1). The test can be described thus: biochemical. The following applies: for inhibition at 5 µM: 4 h; for mean (LOPAC screen with protease) / Replicate_1 (LOPAC screen with protease) / Replicate_2 (LOPAC screen with protease): primary screen at 5 µM. The arrangement: Replicate_1 / Replicate_2 / mean / mean (LOPAC_screen_w_protease): unit not given here. It counts as biochemical.

The mark [1] stands for this setting: sheet LOPAC_screen_w_protease, primary screen with protease, compound at 5 µM, mean of two replicates, read-out: mean.
The mark [2] stands for this setting: sheet LOPAC_screen_w_protease, primary screen with protease, compound at 5 µM, replicate 1, read-out: Replicate_1.
[3] abbreviates: sheet LOPAC_screen_w_protease, primary screen with protease, compound at 5 µM, replicate 2, read-out: Replicate_2.
[4] abbreviates: sheet LOPAC_screen_w_protease, mean of two replicates.
Setting [5] is: sheet LOPAC_screen_w_protease, replicate 1.
[6] abbreviates: sheet LOPAC_screen_w_protease, replicate 2.
The mark [7] stands for this setting: sheet LOPAC_screen_w_protease, primary screen with protease, 5 µM, mean of two replicates, read-out: mean.
Setting [8] is: sheet LOPAC_screen_w_protease, primary screen with protease, 5 µM, replicate 1, read-out: Replicate_1.
Where [9] appears, read: sheet LOPAC_screen_w_protease, primary screen with protease, 5 µM, replicate 2, read-out: Replicate_2.
[10] abbreviates: LOPAC1280 primary screen with protease, 5 µM compound, replicate 1, read-out: Replicate_1 (LOPAC_screen_w_protease).
Setting [11] is: LOPAC1280 primary screen with protease, 5 µM compound, replicate 2, read-out: Replicate_2 (LOPAC_screen_w_protease).
Where [12] appears, read: LOPAC1280 primary screen with protease, 5 µM compound, mean of the two replicates.
Setting [13] is: sheet LOPAC_screen_w_protease, primary screen with protease, mean of two replicates, read-out: mean.
Setting [14] is: sheet LOPAC_screen_w_protease, primary screen with protease, replicate 1, read-out: Replicate_1.
[15] abbreviates: sheet LOPAC_screen_w_protease, primary screen with protease, replicate 2, read-out: Replicate_2.
[16] abbreviates: sheet LOPAC_screen_w_protease, primary screen with protease, mean of two replicates.
[17] abbreviates: sheet LOPAC_screen_w_protease, primary screen with protease, replicate 1.
[18] abbreviates: sheet LOPAC_screen_w_protease, primary screen with protease, replicate 2.
Where [19] appears, read: sheet LOPAC_screen_w_protease, LOPAC1280 at 5 µM, mean of two replicates.
[20] abbreviates: sheet LOPAC_screen_w_protease, LOPAC1280 at 5 µM, replicate 1.
The mark [21] stands for this setting: sheet LOPAC_screen_w_protease, LOPAC1280 at 5 µM, replicate 2.
Setting [22] is: sheet LOPAC_screen_w_protease, primary screen of LOPAC1280 at 5 µM with protease, mean of the two replicates.
[23] abbreviates: sheet LOPAC_screen_w_protease, primary screen of LOPAC1280 at 5 µM with protease, replicate 1.
The mark [24] stands for this setting: sheet LOPAC_screen_w_protease, primary screen of LOPAC1280 at 5 µM with protease, replicate 2.
Where [25] appears, read: sheet LOPAC_screen_w_protease, primary screen with protease, 5 µM, mean of two replicates.
Setting [26] is: sheet LOPAC_screen_w_protease, primary screen with protease, 5 µM, replicate 1.
Where [27] appears, read: sheet LOPAC_screen_w_protease, primary screen with protease, 5 µM, replicate 2.

Where a name gives a salt, the structure may show the parent alone. Read-outs that look alike come from different tables or passages of the source.

Compound `C=CC[N+](C)(C)c1ccc(CCC(=O)CCc2ccc([N+](C)(C)CC=C)cc2)cc1.[Br-].[Br-]` [BW 284c51] gave a Replicate_1 of 2.051, a Replicate_2 of 3.598 and a mean of 2.825.

With `COc1cccc(OC)c1OCCNCC1CSc2ccccc2O1` (centres unmarked) [Benoxathian hydrochloride], the inhibition at 5 µM came out at 2.7% under setting [1], 1.96% under setting [2] and 3.44% under setting [3].

Regarding `S=C(Nc1ccccc1)Nc1nccs1` [1-Phenyl-3-(2-thiazolyl)-2-thiourea], the “mean (LOPAC screen with protease)” value under setting [4] is given as 7.407. Further, the “Replicate_1 (LOPAC screen with protease)” value under setting [5] turned out to be 6.341. In addition, under setting [6], the “Replicate_2 (LOPAC screen with protease)” value was 8.4724.

In turn, `NCC(O)(CS(=O)(=O)O)c1ccc(Cl)cc1` (centres unmarked) [2-Hydroxysaclofen] had a mean (sheet LOPAC_screen_w_protease, LOPAC1280 primary screen at 5 µM, with protease, mean of the two replicates) of 0.8279. Where the note is “sheet LOPAC_screen_w_protease, LOPAC1280 primary screen at 5 µM, with protease, replicate 2”, this compound returned a Replicate_2 of -0.8627.

With `Cn1cnc2c1c(=O)[nH]c(=O)n2C` [Theobromine], the inhibition at 5 µM by setting is: (sheet LOPAC_screen_w_protease, primary screen of LOPAC1280 at 5 µM with protease, mean of the two replicates, read-out: mean) 3.53%; (sheet LOPAC_screen_w_protease, primary screen of LOPAC1280 at 5 µM with protease, replicate 1, read-out: Replicate_1) 4.5%; (sheet LOPAC_screen_w_protease, primary screen of LOPAC1280 at 5 µM with protease, replicate 2, read-out: Replicate_2) 2.55%.

Take `Nc1nc(N)c2nc(-c3ccccc3)c(N)nc2n1` [Triamterene]: the inhibition at 5 µM by setting is: under setting [7], -0.222%; under setting [8], 2.19%; under setting [9], -2.63%.

As to `NC(=NCc1ccccc1)NC(=O)c1nc(Cl)c(N)nc1N` [Benzamil hydrochloride], the inhibition at 5 µM runs as follows: under setting [10], 1.66%; under setting [11], 1.83%. Under setting [12], the “mean (LOPAC_screen_w_protease)” value was 1.743.

`COc1ccc2c(c1)c(CC(=O)N1CCOCC1)c(C)n2C(=O)c1ccc(Cl)cc1` [Indomethacin morpholinylamide]: the inhibition at 5 µM is, setting by setting: under setting [13], 2.27%; under setting [14], 2.02%; under setting [15], 2.53%.

Take `COc1cc2c(cc1OC)-c1c/c(=N\c3c(C)cc(C)cc3C)n(C)c(=O)n1CC2` [Trequinsin hydrochloride]: the inhibition at 5 µM stood at 1.97% under setting [10] and 2% under setting [11]. Moreover, the “mean (LOPAC_screen_w_protease)” value under setting [12] is listed as 1.986.

`N=C(N)NC(=O)c1nc(Cl)c(N2CCCCCC2)nc1N` [5-(N,N-hexamethylene)amiloride] returned a mean under setting [16] of 2.452. Under setting [17], this compound registered a Replicate_1 of 2.2643. Under setting [18], this compound came in with a Replicate_2 of 2.64.

With `C=CCN1CC[C@]23c4c5ccc(O)c4O[C@@H]2/C(=N/N=C2\CC[C@@]4(O)C6Cc7ccc(O)c8c7[C@@]4(CCN6CC=C)[C@@H]2O8)CC[C@@]3(O)C1C5.Cl.Cl` [Naloxonazine dihydrochloride], the “mean (LOPAC screen with protease)” value under setting [4] came to 7.252. Under setting [5], the “Replicate_1 (LOPAC screen with protease)” value is 6.395. Moreover, the “Replicate_2 (LOPAC screen with protease)” value under setting [6] stood at 8.109.

As to `C=C(C)[C@H]1Cc2c(ccc3c2O[C@@H]2COc4cc(OC)c(OC)cc4[C@@H]2C3=O)O1` [Rotenone], the inhibition at 5 µM runs as follows: (sheet LOPAC_screen_w_protease, LOPAC1280 primary screen at 5 µM, with protease, mean of the two replicates, read-out: mean) 0.71%; (sheet LOPAC_screen_w_protease, LOPAC1280 primary screen at 5 µM, with protease, replicate 1, read-out: Replicate_1) 2.43%; (sheet LOPAC_screen_w_protease, LOPAC1280 primary screen at 5 µM, with protease, replicate 2, read-out: Replicate_2) -1.01%.

For `NC(=S)c1ccc[n+]([C@@H]2O[C@@H](COP(=O)([O-])OP(=O)(O)OC[C@H]3O[C@@H](n4cnc5c(N)ncnc54)C(OP(=O)([O-])O)[C@H]3O)C(O)C2O)c1.[Na+]` (some centres unmarked) [Thio-NADP sodium], the “mean (LOPAC_screen_w_protease)” value (LOPAC1280 primary screen with protease, 5 µM compound, mean of two replicates) amounted to 1.323. Besides, the “Replicate_1 (LOPAC_screen_w_protease)” value (LOPAC1280 primary screen with protease, 5 µM compound, replicate 1) amounted to 2.439. The “Replicate_2 (LOPAC_screen_w_protease)” value (LOPAC1280 primary screen with protease, 5 µM compound, replicate 2) was 0.2062.

`CC(C)C(=O)Nc1ccc([N+](=O)[O-])c(C(F)(F)F)c1` [Flutamide]: the inhibition at 5 µM under setting [7] turned out to be 0.293%, the inhibition at 5 µM under setting [8] stood at 2.71% and the inhibition at 5 µM under setting [9] was -2.13%.

In the case of `CN(C(=O)CCCOc1ccc2[nH]c(=O)ccc2c1)C1CCCCC1` [Cilostamide], the inhibition at 5 µM was found to be 2.23% under setting [13], 1.11% under setting [14] and 3.35% under setting [15].

In turn, `COc1ccccc1N1CCN(CCN(C(=O)C2CCCCC2)c2ccccn2)CC1.O=C(O)/C=C\C(=O)O` [WAY-100635 maleate] came in with a mean under setting [19] of 1.0596. In addition, the Replicate_1 under setting [20] is on record as 1.502. This compound also registered a Replicate_2 under setting [21] of 0.6169.

On to `CN(C)C/C=C(/c1ccc(Br)cc1)c1cccnc1` [Zimelidine dihydrochloride], for which the inhibition at 5 µM reads like this: (sheet LOPAC_screen_w_protease, LOPAC1280 at 5 µM, mean of two replicates, read-out: mean) 0.989%; (sheet LOPAC_screen_w_protease, LOPAC1280 at 5 µM, replicate 1, read-out: Replicate_1) 1.05%; (sheet LOPAC_screen_w_protease, LOPAC1280 at 5 µM, replicate 2, read-out: Replicate_2) 0.928%.

Regarding `CN1[C@@H]2CC[C@H]1C[C@@H](OC(c1ccccc1)c1ccccc1N)C2` (some centres unmarked) [Aminobenztropine], the inhibition at 5 µM came to 3.04% under setting [1], 2.54% under setting [2] and 3.53% under setting [3].

`CN1CCc2ccccc2Cc2[nH]c3ccccc3c2CC1` [LE 300] returned a Replicate_1 of 0.4919, a Replicate_2 of 1.5197 and a mean of 1.0058.

With L-Methionine sulfoximine, the “Replicate_1 (LOPAC_screen_w_protease)” value was determined as 2.433, the “Replicate_2 (LOPAC_screen_w_protease)” value is recorded as 0.2989 and the “mean (LOPAC_screen_w_protease)” value is on record as 1.366.

Under setting [22], `NC(CCCCCP(=O)(O)O)C(=O)O` (racemic) [(±)-2-Amino-7-phosphonoheptanoic acid] yielded a mean of 3.542. Further, under setting [23], the Replicate_1 turned out to be 3.653. Under setting [24], this compound yielded a Replicate_2 of 3.43.

With `O=C(O)CN(CCN(CC(=O)O)CC(=O)O)CCN(CC(=O)O)CC(=O)O` [Diethylenetriaminepentaacetic acid], the mean under setting [22] was determined as 3.2. The Replicate_1 under setting [23] was 5.3521. In addition, the Replicate_2 under setting [24] is 1.048.

`Cl.NCCNC(=O)c1ncsc1-c1cccc(F)c1` [Ro 41-1049 hydrochloride]: under setting [25], the mean was -0.1611. The Replicate_1 under setting [26] was 1.896. Besides, the Replicate_2 under setting [27] was -2.218.

Compound `CCCn1c(=O)[nH]c(=O)c2nc[nH]c21` [3-n-Propylxanthine] showed a mean under setting [16] of 2.529. This compound also displayed a Replicate_1 under setting [17] of 1.492. Also, the Replicate_2 under setting [18] is given as 3.5659.

Consider `C[N+](C)(C)CCO.[Br-]` [Choline bromide], for which the Replicate_1 is reported as 2.262, the Replicate_2 came to 3.547 and the mean worked out at 2.905.

Compound `Clc1ccc(C(c2ccccc2Cl)C(Cl)Cl)cc1` (centres unmarked) had a mean under setting [25] of -0.2273. Moreover, the Replicate_1 under setting [26] was 0.8298. The Replicate_2 under setting [27] is on record as -1.2843.

Take `O=C(O)C=Cc1c[nH]cn1` [4-Imidazoleacrylic acid]: the mean under setting [19] was 0.9588. Also, the Replicate_1 under setting [20] amounted to 1.559. This compound yielded a Replicate_2 under setting [21] of 0.3591.

Take `N=C(N)SCCc1cnc[nH]1` [Imetit dihydrobromide]: the inhibition at 5 µM was found to be 2.25% under setting [13], 1.12% under setting [14] and 3.38% under setting [15].

For the compound `CC(C)(Oc1ccc(C2CC2(Cl)Cl)cc1)C(=O)O` (centres unmarked) [Ciprofibrate], the inhibition at 5 µM is 2.4% under setting [13], 2.2% under setting [14] and 2.6% under setting [15].

In turn, `C#CCn1c(=O)c2c(ncn2C)n(C)c1=O` [3,7-Dimethyl-I-propargylxanthine] showed a mean under setting [16] of 2.439. For the same compound, the Replicate_1 under setting [17] was 3.614. Further, the Replicate_2 under setting [18] amounted to 1.263.

`COc1cc(C=C(C#N)C#N)cc(O)c1O` [Tyrphostin AG 34] registered a mean under setting [22] of 3.625. The Replicate_1 under setting [23] is 3.8503. The compound also gave a Replicate_2 under setting [24] of 3.4006.
